Results on ten molecules are retold here after patent publication US6667340B1, “Inhibitors of phosphatidyl myo-inositol cycle” (Arizona Board of Regents on behalf of the University of …, priority 1998, dated 2003).

Where “and” joins values, the source holds several entries; their conditions need not be identical. Identical values can stand only once. Entries after “also recorded” stand apart in the source; their conditions may differ. Like-named read-outs stand apart in the source and are kept apart here.

The term IC50 denotes the concentration needed to halve the response being measured. As a reminder, the solubility is the dissolved amount per volume that the medium holds. Low values mean little dissolved substance, high ones much dissolved substance. The T/C is the ratio of treated to control.

Data set [1] concerns HT-29 colon cancer cells. The conditions noted are these: as reported earlier (J. Med. Chem. 1995; U.S. Pat. No. 5,227,508); read-out: IC50 for inhibition of colony formation by HT-29 human colon carcinoma cells; cited from earlier work.
Data set [2] relates to HT-29 colon cancer cells. As to the kind of experiment: HT-29 colony formation in soft agarose. The class given is cell-based, human. The conditions noted are these: for IC50: HT-29 colonies in soft agarose, 7 days exposure, mean of 3 determinations ± S.E.
Procedure: Specifically, anti-tumor activity was assessed by growing HT-29 colon cancer cells colonies in soft agarose which were then exposed to compounds according to the invention for 7 days and the colonies then counted.
A further data set relates to bovine PI-PLC. As to the kind of experiment: In vitro inhibition of bovine PI-PLC. The class given is biochemical.
The target in another data set is PI-3kinase. The conditions noted are these: previously found; cited from earlier work.
For data set [3], the target named is T1, bovine brain p110/p85 PI-3-kinase (Bos taurus, UniProt P32871).
T1 construct: from tissue; host or cells: bovine brain
T1 sequence (P32871 whole entry): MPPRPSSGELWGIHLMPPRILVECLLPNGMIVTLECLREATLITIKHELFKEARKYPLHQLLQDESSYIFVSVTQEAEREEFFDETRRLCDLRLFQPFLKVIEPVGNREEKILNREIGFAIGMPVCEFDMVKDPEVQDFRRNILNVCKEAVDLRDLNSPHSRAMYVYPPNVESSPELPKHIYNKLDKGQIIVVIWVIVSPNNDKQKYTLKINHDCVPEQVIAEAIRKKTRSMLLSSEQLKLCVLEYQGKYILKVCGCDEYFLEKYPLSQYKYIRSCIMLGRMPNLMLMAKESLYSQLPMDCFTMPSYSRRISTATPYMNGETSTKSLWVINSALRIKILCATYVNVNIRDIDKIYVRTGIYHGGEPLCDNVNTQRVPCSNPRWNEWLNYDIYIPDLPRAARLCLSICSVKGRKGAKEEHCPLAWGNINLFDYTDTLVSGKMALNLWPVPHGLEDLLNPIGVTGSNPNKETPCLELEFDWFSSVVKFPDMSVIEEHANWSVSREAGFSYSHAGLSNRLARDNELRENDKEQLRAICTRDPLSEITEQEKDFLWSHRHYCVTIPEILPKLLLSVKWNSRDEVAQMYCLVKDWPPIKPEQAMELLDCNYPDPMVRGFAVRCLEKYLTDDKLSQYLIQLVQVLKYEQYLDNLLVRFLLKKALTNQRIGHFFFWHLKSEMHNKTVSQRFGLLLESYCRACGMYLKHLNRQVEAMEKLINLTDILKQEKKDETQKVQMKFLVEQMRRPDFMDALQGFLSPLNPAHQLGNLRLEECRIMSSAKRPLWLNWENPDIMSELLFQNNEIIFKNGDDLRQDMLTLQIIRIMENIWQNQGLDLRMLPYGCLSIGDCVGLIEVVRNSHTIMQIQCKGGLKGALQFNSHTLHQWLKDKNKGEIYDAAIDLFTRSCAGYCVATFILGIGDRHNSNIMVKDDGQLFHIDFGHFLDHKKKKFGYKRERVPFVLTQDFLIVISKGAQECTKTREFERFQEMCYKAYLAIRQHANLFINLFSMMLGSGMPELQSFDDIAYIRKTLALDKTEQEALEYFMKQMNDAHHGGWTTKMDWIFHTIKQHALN
T1 sequence (P23727 whole entry partner): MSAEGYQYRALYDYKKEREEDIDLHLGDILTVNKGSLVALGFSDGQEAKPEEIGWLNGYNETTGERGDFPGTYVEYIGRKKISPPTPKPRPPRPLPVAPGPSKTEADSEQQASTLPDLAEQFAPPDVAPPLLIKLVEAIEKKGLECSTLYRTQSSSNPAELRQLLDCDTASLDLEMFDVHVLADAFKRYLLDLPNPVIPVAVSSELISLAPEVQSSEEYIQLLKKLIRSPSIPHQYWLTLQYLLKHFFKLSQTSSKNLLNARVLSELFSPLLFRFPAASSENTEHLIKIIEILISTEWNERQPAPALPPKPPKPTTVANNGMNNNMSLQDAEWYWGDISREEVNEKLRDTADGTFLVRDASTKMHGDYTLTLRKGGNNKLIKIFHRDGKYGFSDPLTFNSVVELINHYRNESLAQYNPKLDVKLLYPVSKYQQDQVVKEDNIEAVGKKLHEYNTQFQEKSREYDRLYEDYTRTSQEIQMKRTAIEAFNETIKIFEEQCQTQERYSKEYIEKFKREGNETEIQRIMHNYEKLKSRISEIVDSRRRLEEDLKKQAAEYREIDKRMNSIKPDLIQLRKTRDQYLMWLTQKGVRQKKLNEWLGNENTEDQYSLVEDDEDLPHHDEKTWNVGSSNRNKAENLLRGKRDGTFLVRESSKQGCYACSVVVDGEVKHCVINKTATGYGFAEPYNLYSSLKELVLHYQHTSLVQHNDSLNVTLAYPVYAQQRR
In words: In vitro inhibition of bovine brain p110/p85 PI-3-kinase. It is filed as biochemical. An excerpt:
Schultz et al.; Anticancer Res., 15:1135-1140 (1995)).

A short description of another data set: Aqueous solubility. The class given is physicochemical. Particulars: aqueous with cosolvent or surfactant or cyclodextrin; in 0.1% Tween 20, opalescent solution. An excerpt:
Therefore, OMDPI should be readily formulated for intravenous use, should this be determined to be the optimal route for clinical administration.

A further data set concerns HT-29 human colon cancer. As to the kind of experiment: Anti-tumor activity against established HT-29 human colon cancer in SCID mice. Particulars: for T/C % / Tumor volume on day 10: qd 4-7; for Tumor volume on day 10: mean of 8 mice with S.E.
For data set [4], the system named is MCF-7 human breast cancer xenografts. In words: in vivo. The class given is in vivo. Particulars: for T/C: p<0.05. An excerpt:
(§1) Also, the relative ability of D-3-deoxy-PtdIns and OMDPI, when administered i.p. as a daily micellar suspension to inhibit the growth of MCF-7 human breast cancer xenografts in SCID mice, was further evaluated. […] […]. These were the maximum tolerated doses that could be given by these schedules. […].

The nature of a further data set: in vivo. It is filed as in vivo. Particulars: SCID, mouse, in vivo, ip, read-out: maximum tolerated dose.
Source text: as §1

The nature of data set [5]: Preliminary toxicology in BALB/C mice. The conditions noted are these: for Weight Change %: killed 24 hr after last dose. It is filed as in vivo, male BALB/C mice. The procedure:
In order to evaluate clinical safety, toxicity tests were conducted by administering DPI or OMDPI to groups of 4 male BALB/C mice daily by i.p. injection for 5 days at the maximum tolerated dose. […] Moreover, there was a 33% decrease in total white blood cell count. It should be noted, however, that this is not sufficient for a cytotoxic drug to be considered myelosuppresive.
As discussed, Table 4 contains the toxicity results obtained with groups of 4 male BALB/C mice, which were administered the compounds daily by i.p. injection for 5 days at the doses shown and killed 24 hr after the last dose. Values are mean±S.E. The p values are shown only where there was a significant difference to control.

For data set [6] the following is noted: administered orally as well as parenterally; cited from earlier work.
For the next data set, the target named is human Akt (Homo sapiens, UniProt P31749). As to the kind of experiment: Inhibition of PDGF-stimulated Akt activation in transfected NIH 3T3 cells. It is filed as cell-based. Particulars: 6 hours exposure, listed as D-3-deoxy-PtdIns.
human Akt, sequence (P31749 whole entry): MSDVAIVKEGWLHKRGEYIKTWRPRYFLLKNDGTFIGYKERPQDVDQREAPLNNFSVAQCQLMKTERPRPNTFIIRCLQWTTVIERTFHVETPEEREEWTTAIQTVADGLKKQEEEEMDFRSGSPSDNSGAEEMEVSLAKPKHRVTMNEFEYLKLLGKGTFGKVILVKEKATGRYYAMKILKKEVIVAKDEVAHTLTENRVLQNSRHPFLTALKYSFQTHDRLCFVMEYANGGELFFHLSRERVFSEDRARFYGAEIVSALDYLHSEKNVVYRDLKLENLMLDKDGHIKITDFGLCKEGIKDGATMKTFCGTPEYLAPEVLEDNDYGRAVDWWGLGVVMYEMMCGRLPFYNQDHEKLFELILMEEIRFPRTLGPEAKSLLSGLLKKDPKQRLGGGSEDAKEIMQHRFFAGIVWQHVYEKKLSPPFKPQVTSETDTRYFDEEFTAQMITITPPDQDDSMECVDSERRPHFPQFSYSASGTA
[7] abbreviates: 100 mg/kg i.p. daily for 5 days.
Where [8] appears, read: 100 mg/kg i.p. daily for 5 days, listed as OMDPI.
[9] abbreviates: 100 mg/kg i.p. daily for 5 days, listed as deoxy-PtdIns Ether Lipid.
The mark [10] stands for this setting: maximum tolerated dose i.p. daily for 5 days.
Where [11] appears, read: 300 mg/kg i.p. daily for 5 days.

On to `CCCCCCCCCCCCCCCC(=O)OCC(COP(=O)(O)OC1C(O)C(O)C(O)C(F)C1O)OC(=O)CCCCCCCCCCCCCCC` (centres unmarked) [(35), 3-Fluoro-3-deoxy-PtdIns, reference compound], for which the IC50 in the data set on HT-29 colon cancer cells [1] and in the data set on HT-29 colon cancer cells [2] was 37 µM throughout.

As for `CCCCCCCCCCCCCCCCCCOC[C@H](COP(=O)(O)OC1C(O)C(O)C(O)C(O)C1O)OC` (some centres unmarked) [1-O-octadecyl-2-O-methyl-sn-glycero-3-phospho-myo-inositol], the “PI-PLC IC50” value with bovine PI-PLC (same assay conditions as Table 2) is “poor inhibitor”. Further, the IC50 on PI-3kinase was 90 µM. Moreover, in the data set with HT-29 colon cancer cells [2] (in words), the “inhibition of cancer cell growth” value is recorded as “only a weak inhibitor”.

Consider `CCCCCCCCCCCCCCCC(=O)OCC(CCP(=O)(O)OC1C(O)CC(O)C(O)C1O)OC(=O)CCCCCCCCCCCCCCC` [(50), 1-O-[(3S)-3,4-bis(palmitoyloxy)butylphosphonyl]-1D-3-deoxy-myo-inositol], for which, in data set [3], the “PI-3-K IC50” value is recorded as “N/A (N/A = not active, with <20% inhibition at 100 gM.)”. In the data set on bovine PI-PLC, the “PtdIns-PLC IC50” value was “N/A (N/A = not active, with <20% inhibition at 100 gM.)”. Moreover, in the data set on HT-29 colon cancer cells [2] (HT-29 colony formation, versus (30)), the “fold increase in growth inhibitory activity compared to DPI” value is > 3 fold and ~3 fold. This molecule had an IC50 in the data set on HT-29 colon cancer cells [2] (Homo sapiens, 168 h) of 10 µM.

As to `CCCCCCCCCCCCCCCCCCOCC(COP(=O)(O)OC1C(O)CC(O)C(O)C1O)OC` (centres unmarked) [(60), 1-O-(2-O-methyl-1-O-octadecyl-sn-glycero-3-phospho)-1D-3-deoxy-myo-inositol], the solubility in “Aqueous solubility” was no less than 10 mg/mL. 2.1 ± 0.1 µM corresponded to half-maximal inhibition with HT-29 colon cancer cells [2] (listed as OMDPI (60)) (IC50). Further, the IC50 in the data set on HT-29 colon cancer cells [2] (Homo sapiens, HT-29, 168 h) stood at 2 µM. Further, in the data set on HT-29 human colon cancer (50 mg/kg i.p.), the T/C % turned out to be 103.7% and the “Tumor volume on day 10” value is 0.258 ± 0.05 cm^3. In the data set with HT-29 human colon cancer (100 mg/kg i.p.), the T/C % is listed as 118.0% and the “Tumor volume on day 10” value was found to be 0.32 ± 0.09 cm^3. Also, in the data set with HT-29 human colon cancer (150 mg/kg i.p.), the T/C % is recorded as 33.3% and the “Tumor volume on day 10” value worked out at 0.09 ± 0.07 cm^3. The “toxicity at the highest dose tested” value in the data set on HT-29 human colon cancer (150 mg/kg per day i.p.) is “not toxic”. Further, the “inhibition of tumor growth” value in the data set with HT-29 human colon cancer (150 mg/kg per day, 4 daily i.p. injections) is given as 67%. Moreover, in the data set on HT-29 human colon cancer (100 and 50 mg/kg per day i.p.), the anti-tumor activity result was “did not elicit anti-tumor activity”. The T/C in [4] (75 mg/kg i.p. for 10 days) was determined as 20%. The T/C in [4] (100 mg/kg i.p. for 5 days) stood at 39%. Moreover, the “inhibition of the growth of MCF-7 breast cancer” value in [4] (4 or 5 day daily i.p. schedule) worked out at 60%. Also, the “inhibition of the growth of MCF-7 breast cancer xenografts” value in [4] (10 day schedule) turned out to be 80%. In addition, the MTD at 5 days in the data set “in vivo” (daily i.p. for 5 days) amounted to 100 mg/kg. In the data set “in vivo” (daily i.p. for 10 days), the MTD at 10 days turned out to be 75 mg/kg. Moreover, in [5] (setting [7]), the ALT stood at 32.7, the BUN turned out to be 18.7, the “Total Protein” value was found to be 4.9 and the White blood cells is 5.8. In [5] (setting [8]), the “Weight Change %” value was “no effect” and the “Platelets × 10^6” value is “no effect”. In data set [5] (setting [9]), the “Weight Change %” value is reported as “+2.3 ± 1.5%” and the “Platelets × 10^6” value is listed as 0.9 × 10^6. Further, in [5] (in words), the “liver, renal toxicity” value is recorded as “not liver or renal toxic” and the myelosuppression result is recorded as “only weakly myelosuppresive”. In data set [5] (setting [10]), the “decrease in total white blood cell count” value was 33% and the “serum liver or kidney enzymes” value is recorded as “did not result in elevation”.

On to `CCCCCCCCCCCCCCCCOP(=O)([O-])OCC[N+](C)(C)C` [mitelfosine, hexadecylphosphocholine], for which, in data set [6], the clinical anti-tumor activity result is reported as “have shown clinical anti-tumor activity”.

As to `CCCCCCCCCCCCCCCC(=O)OCC(COP(=O)(O)OC1C(O)CC(O)C(O)C1O)OC(=O)CCCCCCCCCCCCCCC` (centres unmarked) [(30), 3-deoxy-phosphatidyl-myo-inositol, reference compound], in the data set with bovine PI-PLC, the “PtdIns-PLC IC50” value is given as “N/A (N/A = not active, with <20% inhibition at 100 gM.)”. Further, the Akt activation entry on human Akt is listed as “blocks the activation of Akt; also recorded: blocked Akt activation”. Besides, the IC50 with HT-29 colon cancer cells [1] is 35 µM. In addition, the IC50 in the data set with HT-29 colon cancer cells [2] stood at 35 µM. In the data set on HT-29 human colon cancer (250 mg/kg i.p.), the T/C % was 111.1% and the “Tumor volume on day 10” value is listed as 0.30 ± 0.06 cm^3. The lethality result in the data set with HT-29 human colon cancer (500 mg/kg i.p., qd 4-5) is recorded as “lethal”. For the same molecule, the anti-tumor activity result in the data set with HT-29 human colon cancer (half of 500 mg/kg daily i.p.) is given as “no anti-tumor activity”. Further, the T/C in data set [4] (i.p. daily micellar suspension, dose not given) amounted to 62%. In addition, in [5] (setting [11]), the ALT turned out to be 30.5, the BUN is given as 15.7, the “Platelets × 10^6” value is 0.9 × 10^6 and the “Total Protein” value was 4.6. In [5] (setting [11]), the White blood cells was determined as 7.9 and the “Weight Change %” value is on record as −4.3 ± 1.9%.

Turning to `CCCCCCCCCCCCCCCCCCOCC(CCP(=O)(O)OC1C(O)CC(O)C(O)C1O)OC` [(90), 1-O-[(3S)-methoxy-4-(octadecyloxy)butylphosphonyl]-1D-3-deoxy-myo-inositol], in the data set with HT-29 colon cancer cells [2] (Homo sapiens, 168 h), the concentration for half-maximal inhibition (IC50) came to 45 µM.

In turn, 2,3-dideoxy-PtdIns gave an IC50 with HT-29 colon cancer cells [2] of 50 ± 7 µM.

Regarding `O=P1(N(CCCl)CCCl)NCCCO1` (centres unmarked) [cyclophosphamide, reference compound], the “inhibition of the growth of MCF-7 xenografts” value in data set [4] (265 mg/kg on day 5, positive control) is on record as 43%.

Regarding “3-chloro-3-deoxy-PtdIns [reference compound]”, the “growth inhibition at maximum tested concentration” value in the data set with HT-29 colon cancer cells [2] (HT-29 colony formation) was less than 20%.
